# Test results published in ChEMBL document CHEMBL1821652, “QSAR models for predicting enzymatic hydrolysis of new chemical entities in 'soft-drug' design” (Bioorg Med Chem, 2009).
# Residues, ends and D or L forms follow the SMILES beside them.
# Tested on: Plasma
# Assay: (§1) Half life in human plasma
# Type: ADME, cell-free
row,Compound,t1/2 [h]
1,COC(=O)[C@H](Cc1ccc(OC(C)=O)c(OC(C)=O)c1)NC(=O)N[C@@H](Cc1ccc(OC(C)=O)c(OC(C)=O)c1)C(=O)OC,1.698
2,COC(=O)[C@H](Cc1ccc(OC(C)=O)c(OC(C)=O)c1)NC(=O)CCCC(=O)N[C@@H](Cc1ccc(OC(C)=O)c(OC(C)=O)c1)C(=O)OC,1.05
3,COC(=O)[C@H](Cc1ccc(OC(C)=O)c(OC(C)=O)c1)NC(=O)CCC(=O)N[C@@H](Cc1ccc(OC(C)=O)c(OC(C)=O)c1)C(=O)OC,0.232
4,COC(=O)[C@H](Cc1ccc(OC(C)=O)c(OC(C)=O)c1)NC(=O)CCCCC(=O)N[C@@H](Cc1ccc(OC(C)=O)c(OC(C)=O)c1)C(=O)OC,0.13
5,CC(C)[C@H](N)C(=O)OCCOCn1cnc2c(=O)[nH]c(N)nc21 (stereo in doubt; 167) [VALACYCLOVIR],7.13
6,CC(C)C[C@H](NC(=O)[C@H](Cc1ccccc1)NC(=O)CNC(=O)CNC(=O)[C@@H](N)Cc1ccc(O)cc1)C(=O)O [ENKEPHALIN],13.5
7,CC(C)[N+](C)(CCOC(=O)C1c2ccccc2Oc2ccccc21)C(C)C [PROPANTHELINE],6.17

# Tested on: not listed separately
# Assay: as §1
# Type: ADME, cell-free
row,Compound,half-life [h]
1,CCOC(=O)CNC(=O)OCN(c1ccc([N+](=O)[O-])cc1Oc1ccccc1)S(C)(=O)=O,15.9
2,C[C@H](NC(=O)[C@H](N)CC(=O)OCc1ccccc1)C(=O)O,3.52
3,CC(C)OC(=O)[C@@H](N)Cc1ccc(O)c(O)c1,3.97
4,Cc1cn([C@H]2C=C[C@@H](COC(=O)CN3CCN(c4cc5c(cc4F)c(=O)c(C(=O)O)cn5C4CC4)CC3)O2)c(=O)[nH]c1=O,4
5,Cc1cc(C)nc(N(COC(=O)C(C)(C)C)S(=O)(=O)c2ccc(N)cc2)n1,4.07
6,C[C@H](NC(=O)[C@H](N)CC(=O)OCc1ccc(F)cc1)C(=O)O,4.33
7,CCOC(=O)[C@H]1O[C@@H](Oc2cc3oc(-c4ccc(O)cc4)cc(=O)c3c(O)c2O)[C@H](O)[C@@H](O)[C@@H]1O,4.55
8,CCN(CC)CC(=O)N(COC(=O)C(C)(C)C)c1c(C)cccc1C,4.67
9,COC(=O)[C@@H](C)c1ccc2cc(OC)ccc2c1,5.27
10,CCC(=O)O[C@]1(C(=O)OCCl)CC[C@H]2[C@@H]3CCC4=CC(=O)CC[C@]4(C)[C@H]3[C@@H](O)C[C@@]21C,5.3
11,CC(C)C[C@H](NC(=O)[C@H](Cc1ccccc1)NC(=O)CNC(=O)CN1C(=O)[C@H](Cc2ccc(O)cc2)NC12CCCC2)C(=O)O,5.57
12,CCCC(CCC)C(=O)OCN(C)C(=O)c1ccccc1,6.4
13,CC(C)(C)C(=O)Oc1ccc2c3c1O[C@H]1C(=O)CC[C@@]4(O)[C@@H](C2)N(CC2CC2)CC[C@]314,9.37
14,CC(C)C[C@H](NC(=O)[C@H](Cc1ccccc1)NC(=O)CNC(=O)CN1C(=O)[C@H](Cc2ccc(O)cc2)NC12CCCCC2)C(=O)O,12.2
15,Cc1ncc([N+](=O)[O-])n1CCOC(=O)c1ccccc1C(=O)OCCn1c([N+](=O)[O-])cnc1C,12.4
16,COC(=O)O[C@]1(C(=O)OCCl)CC[C@H]2[C@@H]3CCC4=CC(=O)CC[C@]4(C)[C@H]3[C@@H](O)C[C@@]21C,16
17,CC(C)C[C@H](NC(=O)[C@H](Cc1ccccc1)NC(=O)CNC(=O)CN1C(=O)[C@H](Cc2ccc(O)cc2)NC12CCC(C)CC2)C(=O)O (stereo partly specified),18.8
18,CCCC(CCC)C(=O)OCN(CC(=O)OCC)C(=O)c1ccccc1,22
19,CSCOC(=O)[C@@]1(O)CC[C@H]2[C@@H]3CCC4=CC(=O)C=C[C@]4(C)[C@H]3[C@@H](O)C[C@@]21C,35
20,CSCOC(=O)[C@@]1(O)CC[C@H]2[C@@H]3CCC4=CC(=O)CC[C@]4(C)[C@H]3[C@@H](O)C[C@@]21C,38

row,Compound,half-life [h]
1,CCC(CC)C(=O)Oc1ccc2c3c1O[C@H]1C(=O)CC[C@@]4(O)[C@@H](C2)N(CC2CC2)CC[C@]314,44.7
2,CCOC(=O)CN(C)C(=O)OCN(c1ccc([N+](=O)[O-])cc1Oc1ccccc1)S(C)(=O)=O,49.2
3,COc1ccc2c(c1)c(CC(=O)NCCOCCOCCO)c(C)n2C(=O)c1ccc(Cl)cc1,74
4,CC(C)(C)OC(=O)Oc1ccc2c3c1O[C@H]1C(=O)CC[C@@]4(O)[C@@H](C2)N(CC2CC2)CC[C@]314,> 24
5,CCN(CC)C(=O)COC(=O)[C@H](C)c1ccc(CC(C)C)cc1,0.0167
6,C[C@@H](C(=O)OCC(=O)N(C)C)c1ccc(-c2ccccc2)c(F)c1,0.0183
7,CCN(CC)C(=O)COC(=O)[C@@H](C)c1ccc(CC(C)C)cc1,0.0233
8,CC(C)Cc1ccc([C@@H](C)C(=O)OCC(=O)N(C)C)cc1,0.025
9,CCN(CC)C(=O)COC(=O)[C@H](C)c1ccc(-c2ccccc2)c(F)c1,0.025
10,CCN(CC)C(=O)COC(=O)[C@@H](C)c1ccc(-c2ccccc2)c(F)c1,0.0433
11,CC1(C)O[C@@H]2C[C@H]3[C@@H]4C[C@H](F)C5=CC(=O)C=C[C@]5(C)[C@@]4(F)[C@@H](O)C[C@]3(C)[C@]2(S[C@H]2CCOC2=O)O1,0.0667
12,CCC[C@@H]1O[C@@H]2C[C@H]3[C@@H]4C[C@H](F)C5=CC(=O)C=C[C@]5(C)[C@@]4(F)[C@@H](O)C[C@]3(C)[C@]2(S[C@H]2CCOC2=O)O1,0.0667
13,CCC[C@@H]1O[C@@H]2C[C@H]3[C@@H]4C[C@H](F)C5=CC(=O)CC[C@]5(C)[C@@]4(F)[C@@H](O)C[C@]3(C)[C@]2(S[C@@H]2CCOC2=O)O1,0.0833
14,Cc1nccn1CCOC(=O)[C@H](C)c1ccc(CC(C)C)cc1,0.0867
15,CC(C)Cc1ccc([C@H](C)C(=O)OCC(=O)N(C)C)cc1,0.117
16,C[C@H](C(=O)OCC(=O)N(C)C)c1ccc(-c2ccccc2)c(F)c1,0.183
17,C[C@@H](C(=O)OCCn1ccnc1)c1ccc(-c2ccccc2)c(F)c1,0.3
18,CC(C)Cc1ccc([C@@H](C)C(=O)OCCn2ccnc2)cc1,0.317
19,Cc1nccn1CCOC(=O)[C@H](C)c1ccc(-c2ccccc2)c(F)c1,0.633
20,Cc1nccn1CCOC(=O)[C@@H](C)c1ccc(CC(C)C)cc1,2.25

row,Compound,half-life [h]
1,Cc1nccn1CCOC(=O)[C@@H](C)c1ccc(-c2ccccc2)c(F)c1,5.92
2,C[C@H](C(=O)OCCn1ccnc1)c1ccc(-c2ccccc2)c(F)c1,7.42
3,CC(C)Cc1ccc([C@H](C)C(=O)OCCn2ccnc2)cc1,16
4,CCOC(=O)[C@H](C)c1ccc(CC(C)C)cc1,93
5,CCOC(=O)[C@@H](C)c1ccc(CC(C)C)cc1,265
6,Cc1ncc([N+](=O)[O-])n1CCOC(=O)CN1CCC(c2ccccc2)CC1,2.3
7,COC(=O)[C@H](Cc1ccc(OC(C)=O)c(OC(C)=O)c1)NC(=O)CCCC[C@@H]1CCSS1,0.88
8,CC(=O)Oc1ccc(CCNC(=O)CCCC[C@@H]2CCSS2)cc1OC(C)=O,0.172
9,CC(C)C[C@H]1NC(=O)[C@H](Cc2ccccc2)NC(=O)CNC(=O)[C@@H](C)NC(=O)[C@H](Cc2ccc(O)cc2)NC(=O)/C=C\c2ccccc2OCOC1=O,4.4
10,O=C(CCCC[C@@H]1CCSS1)NCCc1ccc(O)c(O)c1,1.35
11,COC(=O)[C@H](Cc1ccc(O)c(O)c1)NC(=O)CCCC[C@@H]1CCSS1,1.63
12,NCC(=O)N[C@@H](Cc1ccccc1)C(=O)O (H-Gly-Phe-OH),1.19
13,COC(=O)[C@H](Cc1ccccc1)NC(=O)CN.Cl (H-Gly-Phe-OMe),0.167
14,CC(C)[C@H](N)C(=O)OCCOCn1cnc2c(=O)[nH]c(N)nc21 (stereo in doubt; 160) [VALACYCLOVIR],5.2
15,CC(C)C[C@@H](NC(=O)[C@H](Cc1ccccc1)NC(=O)CNC(=O)[C@@H](C)NC(=O)[C@@H](N)Cc1ccc(O)cc1)C(=O)O [DADLE],> 24
16,O=C(CCCCCCCCC(=O)Oc1ccc2c3c1O[C@H]1[C@@H](O)CC[C@@]4(O)[C@@H](C2)N(CC2CCC2)CC[C@]314)Oc1ccc2c3c1O[C@H]1[C@@H](O)CC[C@@]4(O)[C@@H](C2)N(CC2CCC2)CC[C@]314 [DINALBUPHINE SEBACATE],0.09
17,CCOC(=O)[C@@H](N)Cc1ccc(O)c(O)c1 [ETILEVODOPA],1.67
18,COc1ccccc1OC(=O)c1ccccc1Nc1cccc(C)c1C [MEFENAMIC ACID GUAIACOL ESTER],15.2
19,CC(=O)N(c1onc(C)c1C)S(=O)(=O)c1ccc(N)cc1 [SULFISOXAZOLE ACETYL],0.005
